We go through ten molecules from patent US20240342244A1, “Isthmin Protein Therapeutics for the Treatment of Non-Alcoholic Fatty Liver Disease” (The Board of Trustees of the Leland Stanford Junior …, priority 2021, published 2024).

Test [1] concerns pAKT^S473. Briefly: pAKT S473 signaling in 3T3-F442A cells (phosphokinase array, western blot). Conditions: 100 nM; 5 min. Format: cell-based. The method, then: (§1) Western blots and molecular analyses. For western blotting, homogenized tissues or whole-cell lysates, samples were lysed in RIPA buffer containing protease inhibitor cocktail (Roche) and phosphatase inhibitor cocktail (Roche). Cell lysates were centrifuged at 14,000×g for 15 min and supernatants were prepared in 4×LDS Sample Buffer (Invitrogen) and separated by SDS-PAGE and transferred to Immobilon 0.45 μm membranes (Millipore). For Western blotting of plasma samples, 1 μl of plasma was prepared in 2× sample buffer (Invitrogen) with reducing agent, boiled, and analyzed using Western blot against indicated antibody. Protein kinase array (R&D systems ARY003B) was performed according to the manufacturers' description. All antibodies used in this paper are described in STAR methods.

The test system of test [2] is pAKT^S473. Briefly: Signaling induced by ISM1 or insulin in 3T3-F442A cells pre-treated with inhibitors. In kind it is cell-based. Conditions: for effect of inhibitor on pAKT^S473 phosphorylation induced by ISM1 and insulin: ISM1 100 nM or insulin 100 nM, 3T3-F442A cells. The method, then:
as §1

The subject of another test is human SGBS adipocytes. Briefly: 2-deoxy-3H-glucose uptake in human SGBS adipocytes. Format: cell-based. Conditions: 50 nM OSI-906. The method, then: (§2) Mouse and human pre-adipocytes culture and differentiation. Inguinal fat pads from 4-8 week old C57BL/6J male and female mice were dissected and mechanically digested for 10 min using spring scissors. Digested tissues were incubated in WAT isolation buffer (10 ml PBS, 2.4 U/ml dispase II (#04942078001, Roche), 10 mg/ml collagenase D (#11088858001, Roche) at 37° C. for 45 min. 20 mL growth media was added and the tissue suspension was filtered through a 100-μm cell strainer and centrifuged at 600×g for 5 min. The cell pellets were resuspended in 20 mL growth media, filtered through a 40-μm cell strainer, centrifuged at 600×g for 5 min, resuspended in 10 mL growth media, and plated in 10-cm collagen-coated dishes. The cells were cultured in growth media (DMEM/F-12 Glutamax, Thermo Fisher Scientific #10565018) supplemented with 10% fetal bovine serum. Two days post-confluency, differentiation was induced with growth media containing 1 μM rosiglitazone, 0.5 mM isobutylmethylxanthine, 1 μM dexamethasone, 5 μg/mL insulin. After two days, cells were re-fed with growth media containing 1 μM rosiglitazone and 5 μg/mL insulin. Cells were fully differentiated after 6-8 days. For ISM1 knockdown or overexpression in primary adipocytes using adenovirus, 500 μL crude virus was mixed with 500 μL fresh growth media containing 1 μM rosiglitazone and 5 μg/mL insulin was added to each well at day 2 of differentiation. At day 4, virus-containing media was removed and 500 μL fresh growth media without stimulators was added to each well. SGBS cells were differentiated as described previously (Fischer-Posovszky et al., 2008; Wabitsch et al., 2001). Briefly, cells were cultured in growth media DMEM/F-12 Glutamax, supplemented with 10% fetal bovine serum, 33 uM biotin, and 17 uM pantothenate. Two days post confluency, differentiation was induced with serum-free DMEM/F12 media containing 33 uM biotin, 17 uM pantothenate, 0.01 mg/ml transferrin, 20 nM insulin, 100 nM cortisol, 0.2 nM triiodothyronine, 25 nM dexamethasone, 0.25 mM isobutyl methylxanthine, and 2 μM rosiglitazone. After four days, cells were re-fed with growth media containing 0.01 mg/ml transferrin 20 nM insulin, 100 nM cortisol, 0.2 nM triiodothyronine. Cells were fully differentiated after day 8-10.
(§3) Glucose uptake. Glucose uptake was performed as previously described (You et al., 2017). Briefly, 2-Deoxy-d-[2,6-3H]-glucose was purchased from PerkinElmer NEN radiochemicals. Fully differentiated adipocytes were washed with KRH buffer and starved in 0.5% BSA in KRH buffer for 4 h. Indicated concentrations of insulin or ISM1 were added at indicated time points. Cells were treated with a mixture of 500 μM 2-deoxy-D-glucose and 1.71 μCimL^−1 2-Deoxy-D-[1,2-3H (N)]-glucose for another 10 min followed by three washes using ice cold KRH buffer containing 200 mM glucose. The passive glucose uptake in the presence of 50 uM CytoB was less than 12% of the total glucose uptake. Cells were solubilized in 1% SDS and radioactivity was measured by liquid scintillation counting.

The test system of another test is DIO mice. Briefly: Therapeutic ISM1, Metformin or combined administration for 21 days in DIO mice. Format: in vivo, mouse. Conditions: daily for 21 days; compared with vehicle. The method, then:
Therapeutic ISM1 recombinant protein administration in vivo. All pharmacologic studies using recombinant ISM1 protein were performed in mice with established diet-induced obesity or non-alcoholic fatty liver disease (NAFLD). For all experiments, male C57BL/6J mice purchased from Jax were fed either a high-fat diet (#D12492, Research Diets) or a NAFLD diet (#D09100310, Research Diets) prior to ISM1 protein injections. In all experiments, mice were mock injected with saline for three days prior to protein or drug injections to prevent stress-induced weight loss. Mice were I.P. injected with vehicle (saline) or indicated doses of ISM1 protein diluted in saline. For the 14-day experiments in NAFLD mice, 7-weeks old mice were fed with NAFLD diet for 3 weeks and then mock injected with saline for 3 days prior to protein injections. The induction of lipid accumulation with NAFLD diet was verified by the significant increase in hepatic lipid levels compared with mice on chow diet at the same time point. NAFLD mice were then daily I.P. injected with either vehicle (saline containing 5% DMSO and 10% Kolliphor) or indicated doses of ISM1 protein (500 μg/kg or 5 mg/kg) or with FXR agonist (30 mg/kg, GW4064, Sigma-Aldrich, #G5172) diluted in vehicle (saline containing 5% DMSO and 10% Kolliphor). For the 21-day experiments in HFD mice, mice were mock injected with saline for three days prior to protein injections. Mice were then daily I.P. injected with either vehicle (saline) or 5 mg/kg of ISM1 protein diluted in saline. Metformin (100 mg/kg, Sigma, #317240) was diluted in saline and daily administered by oral gavage. All groups received control injections by I.P. and oral gavage. At the end of the experiments, mice and tissue weights were recorded. Tissues and plasma were collected and frozen for further analyses.
Glucose tolerance and insulin tolerance tests. For glucose tolerance tests, mice were fasted overnight and I.P. injected with glucose at 2 g/kg body weight. Blood glucose levels were measured at 0, 15, 30, 45, 60, 90 and 120 mins. For insulin tolerance tests, mice were fasted for 2 h, and I.P. injected with 0.75 U/kg insulin. Blood glucose levels were measured at 0, 15, 30, 45, 60, 90 and 120 mins.

The subject of another test is primary mouse adipocytes. Briefly: 2-deoxy-3H-glucose uptake in primary mouse adipocytes. Format: cell-based. The method, then:
as §2, §3

Where [3] appears, read: pre-treated for 30 min, ISM1 or insulin 100 nM.

“Thrombospondin-1: his-tagged mouse Thrombospondin-1, control protein containing thrombospondin domains [reference compound]”: in the test with pAKT^S473 [1], the “bioactivity on pAKT^S473 (western blot)” value is on record as “no bioactivity”. On to `Cc1ccc([N+](=O)[O-])cc1S(=O)(=O)N(C)/N=C/c1cnc2ccc(Br)cn12` [PIK], for which the “effect of inhibitor on pAKT^S473 phosphorylation induced by ISM1 and insulin” value (from here on “effect of inhibitor … by ISM1 and insulin”) in the test with pAKT^S473 [2] is “completely block”.

Consider `C[C@]1(O)C[C@@H](c2nc(-c3ccc4ccc(-c5ccccc5)nc4c3)c3c(N)nccn32)C1` [OSI-906, reference compound], for which, in the test with human SGBS adipocytes, the “insulin-induced glucose uptake in presence of inhibitor” value is listed as “significantly reduced”. Moreover, in the test with human SGBS adipocytes (100 nM ISM1), the “ISM1-induced glucose uptake in presence of inhibitor” value was “not affected”. For the same molecule, the “insulin signaling in presence of inhibitor” value with pAKT^S473 [2] (1000 nM OSI-906, insulin 100 nM) is “completely abolished”. The “ISM1 signaling in presence of inhibitor” value in the test on pAKT^S473 [2] (even at 1000 nM OSI-906, ISM1 100 nM) was “intact”. Turning to `COc1ncc(-c2ccc3nccc(-c4ccnnc4)c3c2)cc1NS(=O)(=O)c1ccc(F)cc1F` [Omipalisib], the “effect of inhibitor … by ISM1 and insulin” value with pAKT^S473 [2] is recorded as “completely block”.

Take `CN(C)C(=N)N=C(N)N` [Metformin, reference compound]: in the test with DIO mice, the fasting blood glucose entry is reported as “lower” and the “glucose tolerance (GTT)” value is “comparable effects on improving glucose tolerance”. `C=C1[C@@H](C)[C@H]2[C@H](Cc3ccccc3)NC(=O)[C@]23OC(=O)/C=C/[C@H](O)CCC[C@@H](C)C/C=C/[C@H]3[C@@H]1O` [CytoB, reference compound]: the “passive glucose uptake as share of total glucose uptake” value in the test on primary mouse adipocytes (50 uM CytoB) is “less than 12%”. Consider `COc1ccccc1N1CCN(c2ncnc3n[nH]c(Br)c23)CC1` [DG2], for which, in the test with pAKT^S473 [2] (setting [3]), the “effect of inhibitor on S6^S235/S236” value is “dose-dependently inhibited” and the “pAKT in presence of inhibitor” value is reported as “remained intact”. For the molecule `CCOc1cn(-c2ccc(F)cc2C)nc1C(=O)Nc1ccc(Oc2ccnc3cc(OC)c(OC)cc23)c(F)c1` [LDC1267], the “effect of inhibitor on signaling induced by PDGFββ or insulin” value in the test with pAKT^S473 [2] (any of the doses tested, insulin 200 nM, PDGF-ββ 20 ng/ml) is on record as “neither the signaling induced by PDGFββ or insulin are inhibited”. Besides, the “effect of inhibitor on ISM1-induced pAKT signaling” value in the test on pAKT^S473 [2] (pre-treated for 30 min, ISM1 200 nM) was “inhibited”. For the molecule albumin [reference compound], the “glucose uptake (protein control)” value in the test on primary mouse adipocytes (100 nM) was “no effect”. Regarding `CCC(=O)N1CCN(c2ccc(-n3c(=O)ccc4cnc5ccc(-c6cnc7ccccc7c6)cc5c43)cc2C(F)(F)F)CC1` [Torin], the “effect of inhibitor … by ISM1 and insulin” value with pAKT^S473 [2] is given as “fully ablates”.
